The target of one assay is T1, BTK C481S (Homo sapiens, UniProt Q06187, C481S).
T1 construct: purchased Carna 08-547
Kind of assay: Kinase activity inhibition assay (HTRF TK Kit). Type of assay: biochemical. From the text:
(§1) In this assay, the HTRF TK Kit (Catalog No. 62TK0PEC) provided by Cisbio was used to detect the inhibitory activity of compounds on BTK kinase, BTK T474I kinase and BTK C481 S kinase and the selectivity of compounds relative to EGFR, ITK and TEC kinases.
(§2) Reagents and consumables: BTK kinase (Invitrogen, Catalog No. PV3587), BTK C481S (Carna, Product No. 08-547), BTK T474I(SignalChem Product No. B10-12HH), ITK (Cama, Product No. 08-181), EGFR (Cama, Product No. 08-115), TEC (Carna, Product No. 08-182), HTRF-TK kit (Cisbio, Product No. 62TK0PEC), MgCl2 (Sigma, Product No. M1028), MnCl2 (Sigma, Product No. M1787), DTT (Sigma, Product No. D0632), ATP (Sigma, Product No. A7699-1g), DMSO (Sigma, Product No. D2650), 384-well plate (PE, Product No. 6008280).
(§3) The entire operation steps were carried out on ice, and the total reaction volume was 10µL. A compound (4µL), substrate and ATP (4µL), and kinase (2µL) were added in sequence to a 384-well plate, and the plate was shaken for 30 seconds. The mixture was reacted at room temperature for an appropriate time, and then the detection reagent was added. The resulting mixture was reacted at room temperature for 1 hour, and then the plate was assayed with a microplate reader. The specific steps were as follows: • a) a 1 × kinase buffer solution required for the kinase assay was calculated according to the amount of the test compound, and prepared as needed; • b) 2.5 × working concentration of a compound was prepared, 100-fold gradient concentration solutions of a compound were diluted by 40 × to the desired concentration, respectively, mixed well, and added to each well at 4 µL per well; • c) 5 × working concentration of the substrate and ATP were prepared, mixed in a ratio of 1:1 before being added to the 384-well plate, and added to each well at 4 µL per well; • d) 5 × working concentration of a kinase was prepared, 2 µL of which was added to each well; • e) the plate was shaken on a microplate shaker for 30 seconds, sealed with a sealing membrane, and the mixture was reacted at room temperature for an appropriate time; • f) 4 × working concentration of streptavidin XL-665 and TK antibody-cryptate compound were prepared, mixed in a ratio of 1:1 before being added to the 384-well plate, and added to each well at 10 µL per well; • g) the mixture was reacted at room temperature for 1 hour, and then the plate was read; • h) the wells with only substrate, ATP and 1% DMSO added but no kinase were blank control wells, and the wells with only substrate, ATP, 1% DMSO and kinase were positive control wells.
(§4) Readings: The values of 620 nm (cryptate) and 665 nm (XL665) were read with a BioTek Synerg Neo2 microplate reader, the ratio of 665/620 for each well was calculated, and the data were exported.
(§5) Data analysis: IC50 was calculated using GraphPad Prism 7.0 software.
(§6) The IC50 (half-maximal inhibitory concentration) of the compound was obtained using the following nonlinear fitting formula: Y = Bottom + (Top−Bottom)/(1+10^(∧)((LogIC50−X)*HillSlope)) [formula] • X: Log value of the compound concentration • Y: Inhibition rate (% inhibition) • Top: Maximum response • Bottom: Baseline response • HillSlope: Slope of the curve
(§7) The formula for calculating kinase inhibition rate (inhibition rate %) was: [formula]
For orientation: TR-FRET usually uses a lanthanide donor and a delayed reading to cut background.

The target in another assay is T2, BTK T474I (Homo sapiens, UniProt Q06187, T474I).
T2 construct: purchased SignalChem B10-12HH
Put plainly: Kinase activity inhibition assay (HTRF TK Kit). Type of assay: biochemical.
From the text: as §1, §2, §3, §4, §5, §6, §7

The target of the next assay is T3, BTK kinase (Homo sapiens, UniProt Q06187).
T3 construct: purchased Invitrogen PV3587
Kind of assay: Kinase activity inhibition assay (HTRF TK Kit). The class given is biochemical.
From the text: as §1, §2, §3, §4, §5, §6, §7

The next assay deals with NIH/3T3 BTK C481S cells. Put plainly: Phosphor-BTK(Y223) assay, adherent cells. Type of assay: cell-based. As to conditions: read-out: NIH/3T3 BTK-C481S pBTK. The method, boiled down: (§8)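 NIH/3T3 cells expressing WT or C481S BTK were pretreated with compound for 0.5 h at 37 °C, then stimulated with 1 mM Na3VO4 (final) for 2 h. Lysates were assayed by HTRF for p-BTK Y223 using the 665/620 nm ratio. IC50 was obtained by nonlinear fit of % inhibition versus 0.5% DMSO control.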

A further assay relates to NIH/3T3 BTK WT cells. Kind of assay: Phosphor-BTK(Y223) assay, adherent cells. As to conditions: read-out: NIH/3T3 BTK-WT pBTK. The class given is cell-based. The method, boiled down: as §8
Setting [1] is: Mus musculus, NIH3T3, phosphorylated BTK Y223, NIH/3T3 BTK C481S cells.
Where [2] appears, read: Mus musculus, NIH3T3, phosphorylated BTK Y223, NIH/3T3 BTK WT cells.
The mark [3] stands for this setting: phosphorylated BTK Y223, NIH/3T3 BTK C481S cells.
Setting [4] is: phosphorylated BTK Y223, NIH/3T3 BTK WT cells.

pIC50: −log10 of the molar value. Like-named read-outs stand apart in the source and are kept apart here. Some results are limits rather than exact numbers.

T3 sequence (Q06187 whole entry): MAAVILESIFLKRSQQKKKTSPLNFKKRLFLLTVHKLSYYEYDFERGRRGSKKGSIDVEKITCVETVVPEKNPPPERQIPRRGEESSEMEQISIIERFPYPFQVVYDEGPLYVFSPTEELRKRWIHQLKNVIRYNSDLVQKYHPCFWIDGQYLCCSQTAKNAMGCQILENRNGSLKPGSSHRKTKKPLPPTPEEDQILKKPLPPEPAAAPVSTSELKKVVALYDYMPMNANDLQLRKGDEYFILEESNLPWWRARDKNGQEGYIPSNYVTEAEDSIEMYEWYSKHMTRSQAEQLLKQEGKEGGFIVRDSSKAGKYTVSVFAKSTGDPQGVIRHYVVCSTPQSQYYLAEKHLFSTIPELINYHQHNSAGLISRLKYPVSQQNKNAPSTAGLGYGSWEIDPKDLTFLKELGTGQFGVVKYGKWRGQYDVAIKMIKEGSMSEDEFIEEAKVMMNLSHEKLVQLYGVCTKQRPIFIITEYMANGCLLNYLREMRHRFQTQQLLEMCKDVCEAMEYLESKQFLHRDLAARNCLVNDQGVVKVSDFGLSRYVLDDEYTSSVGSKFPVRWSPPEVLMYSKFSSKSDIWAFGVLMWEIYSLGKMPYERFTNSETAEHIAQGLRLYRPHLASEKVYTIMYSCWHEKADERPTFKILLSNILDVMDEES
T1 sequence (Q06187 whole entry C481S): as the sequence (Q06187 whole entry) above, with C481S counted along it
T2 sequence (Q06187 whole entry T474I): as the sequence (Q06187 whole entry) above, with T474I counted along it

`COc1ccc(F)cc1C(=O)NCc1ccc(-c2nc(C(C)C(F)(F)F)cc3[nH]nc(N)c23)cc1` (single isomer, unassigned) [Example 2, N-(4-(3-amino-6-(1,1,1-trifluoropropan-2-yl)-1H-pyrazolo[4,3-c]pyridin-4-yl)benzyl)-5-fluoro-2-methoxybenzamide]: the pIC50 at BTK C481S is 8.30 to 9.00; at BTK T474I, 6.30 to 7.30; on BTK kinase, 8.30 to 9.00; in the assay on NIH/3T3 BTK C481S cells (setting [1]), 7.30 to 8.00; in the assay with NIH/3T3 BTK WT cells (setting [2]), 8.00 to 8.30.

In the case of `COc1ccc(F)cc1C(=O)NCc1ccc(-c2nc(C(C)C(F)(F)F)cc3[nH]nc(N)c23)cc1` (single isomer, unassigned) [Example 3, N-(4-(3-amino-6-(1,1,1-trifluoropropan-2-yl)-1H-pyrazolo[4,3-c]pyridin-4-yl)benzyl)-5-fluoro-2-methoxybenzamide], the pIC50 on BTK C481S is 8.30 to 9.00; on BTK T474I, 6.30 to 7.30; on BTK kinase it was 8.30 to 9.00; in the assay with NIH/3T3 BTK C481S cells (setting [3]) it was 8.00 to 8.30; in the assay with NIH/3T3 BTK WT cells (setting [4]), at least 8.30.

With `COc1ccc(F)cc1C(=O)NCc1ccc(-c2nc(C(C)C(F)(F)F)c(-c3ccn(C)n3)c3[nH]nc(N)c23)cc1` (single isomer, unassigned) [Example 6-1, N-(4-(3-amino-7-(1-methyl-1H-pyrazol-3-yl)-6-(1,1,1-trifluoropropan-2-yl)-1H-pyrazolo[4,3-c]pyridin-4-yl)benzyl)-5-fluoro-2-methoxybenzamide], the pIC50 was 8.30 to 9.00 at BTK C481S; 7.30 to 8.30 at BTK T474I; 8.30 to 9.00 on BTK kinase; 7.30 to 8.00 in the assay with NIH/3T3 BTK C481S cells (setting [1]); at least 8.30 in the assay with NIH/3T3 BTK WT cells (setting [2]).

For `COc1ccc(F)cc1C(=O)NCc1ccc(-c2nc(C(C)C(F)(F)F)c(-c3ccn(C)n3)c3[nH]nc(N)c23)cc1` (single isomer, unassigned) [Example 6-2, N-(4-(3-amino-7-(1-methyl-1H-pyrazol-3-yl)-6-(1,1,1-trifluoropropan-2-yl)-1H-pyrazolo[4,3-c]pyridin-4-yl)benzyl)-5-fluoro-2-methoxybenzamide], the pIC50 was 8.30 to 9.00 on BTK C481S; 7.30 to 8.30 at BTK T474I; 8.30 to 9.00 at BTK kinase; 7.30 to 8.00 in the assay on NIH/3T3 BTK C481S cells (setting [3]); at least 8.30 in the assay with NIH/3T3 BTK WT cells (setting [4]).

With `COc1ccc(F)cc1C(=O)NCc1ccc(-c2nc(C(C)C(F)(F)F)c(-c3ncccn3)c3[nH]nc(N)c23)cc1` (single isomer, unassigned) [Example 7-1, N-(4-(3-amino-7-(pyrimidin-2-yl)-6-(1,1,1-trifluoropropan-2-yl)-1H-pyrazolo[4,3-c]pyridin-4-yl)benzyl)-5-fluoro-2-methoxybenzamide], the pIC50 on BTK C481S was 8.30 to 9.00; at BTK T474I, 6.30 to 7.30; at BTK kinase, 8.30 to 9.00; in the assay with NIH/3T3 BTK C481S cells (setting [1]) it was 8.00 to 8.30; in the assay with NIH/3T3 BTK WT cells (setting [2]), at least 8.30.

As to `COc1ccc(F)cc1C(=O)NCc1ccc(-c2nc(C(C)C(F)(F)F)c(-c3ncccn3)c3[nH]nc(N)c23)cc1` (single isomer, unassigned) [Example 7-2, N-(4-(3-amino-7-(pyrimidin-2-yl)-6-(1,1,1-trifluoropropan-2-yl)-1H-pyrazolo[4,3-c]pyridin-4-yl)benzyl)-5-fluoro-2-methoxybenzamide], the pIC50 at BTK C481S is 8.30 to 9.00; on BTK T474I, 6.30 to 7.30; at BTK kinase, 8.30 to 9.00; in the assay on NIH/3T3 BTK C481S cells (setting [3]) it was 8.00 to 8.30; in the assay on NIH/3T3 BTK WT cells (setting [4]), at least 8.30.

In the case of `COc1ccc(F)cc1C(=O)NCc1ccc(-c2nc(C(C)C(F)(F)F)cc3[nH]nc(N)c23)cc1` (centres unmarked) [Example 1, N-(4-(3-amino-6-(1,1,1-trifluoropropan-2-yl)-1H-pyrazolo[4,3-c]pyridin-4-yl)benzyl)-5-fluoro-2-methoxybenzamide], the pIC50 at BTK C481S is 7.30 to 8.30; at BTK T474I, under 6.30; on BTK kinase it was 7.30 to 8.30; with NIH/3T3 BTK C481S cells (setting [1]), 7.30 to 8.00; in the assay on NIH/3T3 BTK WT cells (setting [2]), 7.30 to 8.00.

In the case of `COc1ccc(F)cc1C(=O)NCc1ccc(-c2nc(C(C)C(F)(F)F)c(-c3ccn(C)n3)c3[nH]nc(N)c23)cc1` (centres unmarked) [Example 6, N-(4-(3-amino-7-(1-methyl-1H-pyrazol-3-yl)-6-(1,1,1-trifluoropropan-2-yl)-1H-pyrazolo[4,3-c]pyridin-4-yl)benzyl)-5-fluoro-2-methoxybenzamide], the pIC50 on BTK C481S is 8.30 to 9.00; on BTK T474I, 7.30 to 8.30; on BTK kinase, 8.30 to 9.00; with NIH/3T3 BTK C481S cells (setting [1]), 8.00 to 8.30; in the assay on NIH/3T3 BTK WT cells (setting [2]) it was at least 8.30.

Consider `COc1ccc(F)cc1C(=O)NCc1ccc(-c2nc(C(C)C(F)(F)F)c(-c3ncccn3)c3[nH]nc(N)c23)cc1` (centres unmarked) [Example 7, N-(4-(3-amino-7-(pyrimidin-2-yl)-6-(1,1,1-trifluoropropan-2-yl)-1H-pyrazolo[4,3-c]pyridin-4-yl)benzyl)-5-fluoro-2-methoxybenzamide], for which the pIC50 on BTK C481S is 8.30 to 9.00; on BTK T474I, 6.30 to 7.30; on BTK kinase it was 8.30 to 9.00; in the assay with NIH/3T3 BTK C481S cells (setting [1]) it was 8.00 to 8.30; in the assay with NIH/3T3 BTK WT cells (setting [2]), at least 8.30.

With `COc1ccc(F)cc1C(=O)NCc1ccc(-c2nc(C(C)C(F)(F)F)c(-c3cc(C)[nH]n3)c3[nH]nc(N)c23)cc1` (centres unmarked) [Example 9, N-(4-(3-amino-7-(5-methyl-1H-pyrazol-3-yl)-6-(1,1,1-trifluoropropan-2-yl)-1H-pyrazolo[4,3-c]pyridin-4-yl)benzyl)-5-fluoro-2-methoxybenzamide], the pIC50 on BTK C481S is 7.30 to 8.30; on BTK T474I, 6.30 to 7.30; at BTK kinase, 8.30 to 9.00; with NIH/3T3 BTK C481S cells (setting [1]), 7.30 to 8.00; with NIH/3T3 BTK WT cells (setting [2]), 8.00 to 8.30.

Take `COc1ccc(F)cc1C(=O)NCc1ccc(-c2ncc(-c3ccccn3)c3[nH]nc(N)c23)cc1` [Example 15, N-(4-(3-amino-7-(pyridin-2-yl)-1H-pyrazolo[4,3-c]pyridin-4-yl)benzyl)-5-fluoro-2-methoxybenzamide]: the pIC50 at BTK C481S is at least 9.00; at BTK T474I it was 6.30 to 7.30; on BTK kinase, at least 9.00; in the assay with NIH/3T3 BTK C481S cells (setting [1]), 8.00 to 8.30; in the assay on NIH/3T3 BTK WT cells (setting [2]), at least 8.30.

As for `COc1ccc(F)cc1C(=O)NCc1ccc(-c2ncc(-c3ncccn3)c3[nH]nc(N)c23)cc1` [Example 17, N-(4-(3-amino-7-(pyrimidin-2-yl)-1H-pyrazolo[4,3-c]pyridin-4-yl)benzyl)-5-fluoro-2-methoxybenzamide], the pIC50 was 8.30 to 9.00 on BTK C481S; 6.30 to 7.30 at BTK T474I; 8.30 to 9.00 at BTK kinase; 8.00 to 8.30 in the assay on NIH/3T3 BTK C481S cells (setting [1]); at least 8.30 in the assay with NIH/3T3 BTK WT cells (setting [2]).

For the compound `COc1ccc(F)cc1C(=O)NCc1ccc(-c2ncc(-c3cnccn3)c3[nH]nc(N)c23)cc1` [Example 18, N-(4-(3-amino-7-(pyrazin-2-yl)-1H-pyrazolo[4,3-c]pyridin-4-yl)benzyl)-5-fluoro-2-methoxybenzamide], the pIC50 at BTK C481S was 8.30 to 9.00; at BTK T474I, 6.30 to 7.30; at BTK kinase it was 7.30 to 8.30; in the assay with NIH/3T3 BTK C481S cells (setting [1]), 7.30 to 8.00; in the assay with NIH/3T3 BTK WT cells (setting [2]), at least 8.30.

The values are drawn from patent EP4741392A1, “1H-PYRAZOLO[4,3-C]PYRIDINE COMPOUND, AND COMPOSITION THEREOF AND USE THEREOF” (Shenzhen TargetRx Co., Ltd., priority 2023, dated 2025).
